Experimental data from the SangsterLogP compilation.

Test: method code SF, from DOI: 10.1021/jm00213a023, PMID: 321779

logP	SMILES
0.99	CCOc1cc(N)ccc1C(=O)O
1.66	Nc1ccc(C(=O)O)cc1N1C(=O)CSC1=S

Test: method code SF-AS, from DOI: 10.1021/jm00213a023, PMID: 321779

logP	SMILES
-0.31	Nc1ccc(C(=O)O)c(N)c1
1.24	CCCCOc1cc(N)ccc1C(=O)O
2.23	Nc1ccc(C(=O)O)cc1Br
2.35	Nc1ccc(C(=O)O)cc1Cl
1.41	Nc1ccc(C(=O)O)cc1F
1.33	Nc1ccc(C(=O)O)c(Cl)c1
1.25	C=CCOc1cc(N)ccc1C(=O)O
2.38	CCCCCOc1cc(N)ccc1C(=O)O
3.77	CCCCCCCCOc1cc(N)ccc1C(=O)O
3.37	CCCCCCCOc1cc(N)ccc1C(=O)O
2.36	Nc1ccc(C(=O)O)cc1I
0.5	Nc1ccc(C(=O)O)cc1O
1.49	Nc1ccc(C(=O)O)c(Br)c1
0.13	Nc1ccc(C(=O)O)cc1N
0.45	COc1cc(N)ccc1C(=O)O
1.21	Nc1ccc(C(=O)O)c([N+](=O)[O-])c1
1.65	Nc1ccc(C(=O)O)c(I)c1
1.29	Nc1ccc(C(=O)O)c(F)c1
2.3	CC(C)CCOc1cc(N)ccc1C(=O)O

Test: method code SF-C, from DOI: 10.1021/jm00213a023, PMID: 321779

logP	SMILES
1.14	Cc1cc(N)ccc1C(=O)O
